In ChEMBL document CHEMBL1144573, “Lead optimization of [(S)-gamma-(arylamino)prolyl]thiazolidine focused on gamma-substituent: Indoline compounds as potent DPP-IV inhibitors” (Bioorg Med Chem, 2007):
pIC50: −log10 of the molar value.

Columns and labels:
Dipeptidyl peptidase 4 [1] = molecular target: Dipeptidyl peptidase 4 (Rattus norvegicus, UniProt P14740); test: Inhibition of DPP4 in rat plasma by fluorescence assay; assay type: cell-free
Dipeptidyl peptidase 4 [2] = molecular target: Dipeptidyl peptidase 4 (Homo sapiens, UniProt P27487); assay type: cell-free, Plasma
Dipeptidyl peptidase 4 (Homo sapiens, UniProt P27487), sequence (P27487 whole entry): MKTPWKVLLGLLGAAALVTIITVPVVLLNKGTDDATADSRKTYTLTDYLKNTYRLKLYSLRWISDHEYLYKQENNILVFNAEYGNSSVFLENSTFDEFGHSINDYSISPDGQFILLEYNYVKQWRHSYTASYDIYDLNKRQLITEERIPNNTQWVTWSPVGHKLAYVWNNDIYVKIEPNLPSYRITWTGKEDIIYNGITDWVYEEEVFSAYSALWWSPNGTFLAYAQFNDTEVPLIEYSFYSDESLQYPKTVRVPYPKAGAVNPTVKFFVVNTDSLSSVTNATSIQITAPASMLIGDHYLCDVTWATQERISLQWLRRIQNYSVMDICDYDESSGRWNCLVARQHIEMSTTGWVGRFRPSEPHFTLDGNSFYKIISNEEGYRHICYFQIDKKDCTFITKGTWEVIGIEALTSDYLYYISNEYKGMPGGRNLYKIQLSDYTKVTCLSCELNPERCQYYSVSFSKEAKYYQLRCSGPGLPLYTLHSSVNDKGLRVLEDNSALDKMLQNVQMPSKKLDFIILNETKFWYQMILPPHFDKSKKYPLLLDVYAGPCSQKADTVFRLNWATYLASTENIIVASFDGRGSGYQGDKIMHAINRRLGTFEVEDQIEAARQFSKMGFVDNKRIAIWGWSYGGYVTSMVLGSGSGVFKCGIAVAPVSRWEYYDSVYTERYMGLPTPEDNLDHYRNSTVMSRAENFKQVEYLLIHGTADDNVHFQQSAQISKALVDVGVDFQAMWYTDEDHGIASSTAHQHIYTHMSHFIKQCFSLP

Dipeptidyl peptidase 4 (Rattus norvegicus, UniProt P14740), sequence (P14740 whole entry): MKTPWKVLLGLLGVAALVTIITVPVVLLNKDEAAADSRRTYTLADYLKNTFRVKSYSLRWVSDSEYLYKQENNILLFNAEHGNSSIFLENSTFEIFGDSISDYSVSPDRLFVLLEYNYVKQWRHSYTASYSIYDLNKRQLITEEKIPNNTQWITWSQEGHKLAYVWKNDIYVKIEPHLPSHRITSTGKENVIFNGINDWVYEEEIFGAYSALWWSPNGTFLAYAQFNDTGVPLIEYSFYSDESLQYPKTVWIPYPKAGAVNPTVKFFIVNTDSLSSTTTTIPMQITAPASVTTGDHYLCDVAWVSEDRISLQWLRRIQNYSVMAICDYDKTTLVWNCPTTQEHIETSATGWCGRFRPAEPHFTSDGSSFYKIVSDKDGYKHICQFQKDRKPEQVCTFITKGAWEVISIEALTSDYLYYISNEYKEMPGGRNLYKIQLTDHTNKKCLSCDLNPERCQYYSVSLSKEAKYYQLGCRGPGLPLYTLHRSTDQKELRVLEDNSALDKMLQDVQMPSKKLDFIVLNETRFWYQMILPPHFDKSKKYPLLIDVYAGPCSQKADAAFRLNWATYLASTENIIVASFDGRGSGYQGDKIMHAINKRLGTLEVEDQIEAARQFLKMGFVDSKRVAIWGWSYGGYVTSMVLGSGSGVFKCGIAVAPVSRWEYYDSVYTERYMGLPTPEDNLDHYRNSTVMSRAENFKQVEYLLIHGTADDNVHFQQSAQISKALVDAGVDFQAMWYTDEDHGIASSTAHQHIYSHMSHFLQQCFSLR

| Structure (SMILES) | pIC50 (Dipeptidyl peptidase 4 [1]) | pIC50 (Dipeptidyl peptidase 4 [2]) |
| --- | --- | --- |
| O=C([C@@H]1C[C@H](N2CCc3cc(Cl)ccc32)CN1)N1CCSC1 | 7.87 |  |
| O=C([C@@H]1C[C@H](N2CCc3cc(Br)ccc32)CN1)N1CCSC1 | 7.97 |  |
| CN(Cc1ccc(C#N)cc1)[C@@H]1CN[C@H](C(=O)N2CCSC2)C1 | 7.87 |  |
| N#Cc1ccc(CN(CCO)[C@@H]2CN[C@H](C(=O)N3CCSC3)C2)cc1 | 7.64 |  |
| COc1ccc(N[C@@H]2CN[C@H](C(=O)N3CCSC3)C2)cc1 | 7.26 |  |
| N#Cc1ccc(C(=O)O[C@@H]2CN[C@H](C(=O)N3CCSC3)C2)cc1 | < 6.52 | < 6.52 |

Other lines, results leading:

| pIC50 (Dipeptidyl peptidase 4 [1]) | pIC50 (Dipeptidyl peptidase 4 [2]) | Structure (SMILES) |
| --- | --- | --- |
| 8.00 |  | O=C([C@@H]1C[C@H](N2CCc3cc(F)ccc32)CN1)N1CCSC1 |
|  | < 6.52 | O=C(N[C@@H]1CN[C@H](C(=O)N2CCSC2)C1)c1ccccc1 |
| < 6.52 | < 6.52 | N#Cc1ccc(S(=O)(=O)N[C@@H]2CN[C@H](C(=O)N3CCSC3)C2)cc1 |
| < 6.52 | < 6.52 | O=C([C@@H]1C[C@H](NS(=O)(=O)c2ccccc2)CN1)N1CCSC1 |
| 7.99 |  | O=C([C@@H]1C[C@H](N2CCc3cc([N+](=O)[O-])ccc32)CN1)N1CCSC1 |
| 7.71 |  | O=C([C@@H]1C[C@H](N2CCc3ccccc32)CN1)N1CCSC1 |
| < 6.52 | < 6.52 | O=C(O[C@@H]1CN[C@H](C(=O)N2CCSC2)C1)c1ccccc1 |
